In patent US9085571B2, “Nonpeptide HIV-1 protease inhibitors” (Purdue Research Foundation, priority 2008, dated 2015):

Molecular target: HIV-1 protease (Human immunodeficiency virus type 1 group M subtype B (isolate HXB2) (HIV-1), UniProt P04585)
Test: Inhibition of HIV proteases (inhibition constants, method of Toth and Marshall)
Format: biochemical
Details: not given
Text: Techniques for measurement of the ability of the compounds herein described to decrease the proteolytic activity of proteases encoded by HIV are well known to those skilled in the relevant art and any one or combination of such techniques can be used to measure the inhibition of protease activity of the compound herein described. One illustrative method is described by Toth and Marshall (Toth & Marshall, Int. J. Pep. Protein Res. (1990), 36, 544-550). The disclosure of the foregoing is incorporated herein in its entirety by reference. In addition, the entirety of the disclosures of each of the publications cited herein are also incorporated herein by reference.

Row | SMILES | Ki [nM]
1 | COc1ccc(S(=O)(=O)N(CC(C)C)C[C@@H](O)[C@H](Cc2ccccc2)NC(=O)c2cccc(C(=O)N(C)Cc3nc(C)co3)c2)cc1 | 0.6
2 | COc1ccc(S(=O)(=O)N(CC(C)C)C[C@@H](O)[C@H](Cc2ccccc2)NC(=O)c2cccc(C(=O)N(C)Cc3csc(C)n3)c2)cc1 | 0.1
3 | CCCN(C)C(=O)c1cc(NC)cc(C(=O)N[C@@H](Cc2ccccc2)[C@H](O)CN(CC(C)C)S(=O)(=O)c2ccc(OC)cc2)c1 | 200
4 | COc1ccc(S(=O)(=O)N(CC(C)C)C[C@@H](O)[C@H](Cc2ccccc2)NC(=O)c2cccc(C(=O)N3CCC[C@H]3c3nc(C)cs3)c2)cc1 | 30
5 | CCCN(CCC)C(=O)c1cccc(C(=O)N[C@@H](Cc2ccccc2)[C@H](O)CN2C[C@H]3CCCC[C@H]3C[C@H]2C(=O)NC(C)(C)C)c1 | 100
6 | CCCN(C)C(=O)c1cc(C(=O)N[C@@H](Cc2ccccc2)[C@H](O)CN(CC(C)C)S(=O)(=O)c2ccc(OC)cc2)cc(N(C)C(=O)OC(C)(C)C)c1 | 1000
7 | CCCNC(=O)c1cc(OC)cc(C(=O)N[C@@H](Cc2ccccc2)[C@H](O)CN(CC(C)C)S(=O)(=O)c2ccc(OC)cc2)c1 | 50
8 | Cc1nc(CN(C)C(=O)c2cccc(C(=O)N[C@@H](Cc3ccccc3)[C@H](O)CN(CC(C)C)S(=O)(=O)c3ccc(N)cc3)c2)c(C)o1 | 2
9 | COc1ccc(S(=O)(=O)N(CC(C)C)C[C@@H](O)[C@H](Cc2ccccc2)NC(=O)c2cc(N)cc(C(=O)N(C)C3CCCCC3)c2)cc1 | 300
10 | CCCNC(=O)c1cc(N)cc(C(=O)N[C@@H](Cc2ccccc2)[C@H](O)CN(CC(C)C)S(=O)(=O)c2ccc(OC)cc2)c1 | 400
11 | COc1ccc(S(=O)(=O)N(CC(C)C)C[C@@H](O)[C@H](Cc2ccccc2)NC(=O)c2cncc(C(=O)N(C)Cc3nc(C)oc3C)c2)cc1 | 6
12 | COc1ccc(S(=O)(=O)N(CC(C)C)C[C@@H](O)[C@H](Cc2ccccc2)NC(=O)c2cccc(C(=O)N(C)Cc3oc(C)nc3C)c2)cc1 | 0.6
13 | COc1ccc(S(=O)(=O)N(CC(C)C)C[C@@H](O)[C@H](Cc2ccccc2)NC(=O)c2cc(OC)cc(C(=O)N(C)Cc3nc(C)oc3C)c2)cc1 | 1
14 | COc1ccc(S(=O)(=O)N(CC(C)C)C[C@@H](O)[C@H](Cc2ccccc2)NC(=O)c2ccc(C(=O)N(C)Cc3nc(C)oc3C)cc2)cc1 | 70
15 | Cc1nc(CNC(=O)c2cccc(C(=O)N[C@@H](Cc3ccccc3)[C@H](O)CN3C[C@H]4CCCC[C@H]4C[C@H]3C(=O)NC(C)(C)C)c2)c(C)o1 | 20
16 | CNc1cc(C(=O)N[C@@H](Cc2ccccc2)[C@H](O)CN(CC(C)C)S(=O)(=O)c2ccc(OC)cc2)cc(C(=O)N(C)C2CCCCC2)c1 | 200
17 | COc1ccc(S(=O)(=O)N(CC(C)C)C[C@@H](O)[C@H](Cc2ccccc2)NC(=O)c2cccc(C(=O)N3CCC[C@@H]3c3nc(C)cs3)c2)cc1 | 0.03 to 8
18 | Cc1coc(CN(C)C(=O)c2cccc(C(=O)N[C@@H](Cc3ccccc3)[C@H](O)CN(CC(C)C)S(=O)(=O)c3ccc(CO)cc3)c2)n1 | 0.6
19 | Cc1nc(CN(C)C(=O)c2cccc(C(=O)N[C@@H](Cc3ccccc3)[C@H](O)CN3C[C@H]4CCCC[C@H]4C[C@H]3C(=O)NC(C)(C)C)c2)c(C)o1 | 5
20 | CCCN(C)C(=O)c1cc(OC)cc(C(=O)N[C@@H](Cc2ccccc2)[C@H](O)CN(CC(C)C)S(=O)(=O)c2ccc(OC)cc2)c1 | 20
21 | CCCNC(=O)c1cc(NC)cc(C(=O)N[C@@H](Cc2ccccc2)[C@H](O)CN(CC(C)C)S(=O)(=O)c2ccc(OC)cc2)c1 | 300
22 | COc1ccc(S(=O)(=O)N(CC(C)C)C[C@@H](O)[C@H](Cc2ccccc2)NC(=O)c2cc(C)cc(C(=O)N(C)Cc3nc(C)oc3C)c2)cc1 | 0.2
23 | COc1ccc(S(=O)(=O)N(CC(C)C)C[C@@H](O)[C@H](Cc2ccccc2)NC(=O)c2ccccc2C(=O)N(C)Cc2nc(C)oc2C)cc1 | 600
24 | COc1ccc(S(=O)(=O)N(CC(C)C)C[C@@H](O)[C@H](Cc2ccccc2)NC(=O)c2cc(N)cc(C(=O)N(C)Cc3nc(C)oc3C)c2)cc1 | 100
25 | COCc1coc(CN(C)C(=O)c2cccc(C(=O)N[C@@H](Cc3ccccc3)[C@H](O)CN(CC(C)C)S(=O)(=O)c3ccc(OC)cc3)c2)n1 | 0.3
26 | CNc1cc(C(=O)N[C@@H](Cc2ccccc2)[C@H](O)CN(CC(C)C)S(=O)(=O)c2ccc(OC)cc2)cc(C(=O)N(C)Cc2nc(C)oc2C)c1 | 5
27 | CCCN(CCC)C(=O)c1cccc(C(=O)N[C@@H](Cc2ccccc2)[C@H](O)CN(CC(C)C)S(=O)(=O)c2ccc(OC)cc2)c1 | 20
28 | COc1ccc(S(=O)(=O)N(CC(C)C)C[C@@H](O)[C@H](Cc2ccccc2)NC(=O)c2cc(C(=O)N(C)C3CCCCC3)cc(N(C)C(=O)OC(C)(C)C)c2)cc1 | 1000
29 | COc1ccc(S(=O)(=O)N(CC(C)C)C[C@@H](O)[C@H](Cc2ccccc2)NC(=O)c2cc(OC)cc(C(=O)N(C)C3CCCCC3)c2)cc1 | 40

Tested on: HIV-1
Test: Inhibition of HIV-1 (IC50)
Format: cell-based, human immunodeficiency virus type 1
Details: Human immunodeficiency virus 1

Row | SMILES | IC50 [nM]
30 | COc1ccc(S(=O)(=O)N(CC(C)C)C[C@@H](O)[C@H](Cc2ccccc2)NC(=O)c2cccc(C(=O)N(C)Cc3nc(C)co3)c2)cc1 | 20
31 | COc1ccc(S(=O)(=O)N(CC(C)C)C[C@@H](O)[C@H](Cc2ccccc2)NC(=O)c2cccc(C(=O)N3CCC[C@@H]3c3nc(C)cs3)c2)cc1 | 32
32 | COc1ccc(S(=O)(=O)N(CC(C)C)C[C@@H](O)[C@H](Cc2ccccc2)NC(=O)c2cc(C)cc(C(=O)N(C)Cc3nc(C)oc3C)c2)cc1 | 30
